Ends that are not written are not given here.

The test system of series [1] is cancer, normal and immune cells (CT26, 4T1, H9C2, HDF, M0 and M1 macrophages, DCs, T cells). Description: Cytotoxicity study (CCK-8), all cell types. Particulars: read-out: IC50 values in all the cell types (span); CCK-8, 48 h, concentrations based on DOX contents.
Description: Briefly, 5 × 10^3 cells were seeded in 96-well cell culture plates and cultured at 37 C for 24 h. […] Finally, 20 μl Cell Counting Kit-8 (CCK-8) solution was added and then further incubated for 20 min. The cell viability was measured using a UV/Vis microplate reader.
The test system of a further series is CT26 tumor tissues. Description: Antitumor immune response in tumor tissues (flow cytometry). The class given is in vivo, mice. Particulars: day 13 after treatment, 3 mg/kg DOX dose once every three days.
A short description of series [2]: Drug release profile from dialysis membranes. Particulars: very fast release. In kind it is physicochemical.
The next series has as its system CT26 cells. Put plainly: Cellular uptake and nuclear localization of DOX fluorescence (confocal). Particulars: both naive or Z-FA-FMK-treated CT26 cells; 2 µM, 48 h.
Series [3] concerns CT26 cells co-cultured with bone marrow-derived macrophages (BMDMs). Description: Co-culture assay: phagocytosis of treated CT26 cells by BMDMs. Particulars: CT26 treated 2 µM (DOX contents) 48 h, pHrodo labeled; co-cultured 2 h with BMDMs; confocal imaging.
Description: For these analyses, bone marrow cells were collected from 5-week-old male BALB/C mice and cultured with differentiation media containing M-CSF (20 ng/mL) for 7 days, followed by labeling with CellTracker Green. […] Then, both cells were co-cultured at 37 C for 2 h, and the phagocytosis of cancer cells was observed using a CLSM.
Series [4] relates to CT26 colon tumor-bearing mice. Description: In vivo antitumor efficacy.
Description: (§2) Antitumor efficacy was assessed by measuring tumor volumes that are calculated as the largest diameter × the smallest diameter^2 × 0.53. To analyze the increase of tumor-infiltrating lymphocytes by antitumor immune response, tumor tissues were collected from mice on day 13 after treatment, and single cells were isolated from tumor tissues using a tumor dissociation kit. Following single cell counting, the cells were incubated with FcBlock for 10 min to avoid non-specific antibody binding. Then, multi-parameter staining was performed at 4 °C for 50 min to identify the following populations within the tumor tissues: (i) CRT-positive cancer cells (CD45^−CRT^+), (ii) mature DCs (CD11c^+CD40^+CD86^+), (iii) cytotoxic T cells (CD45^+CD3^+CD8^+) and (iv) regulatory T lymphocytes (Tregs; CD45^+CD3^+CD4^+CD25^+).
A further series has as its system IAPs in CT26 cells. Put plainly: Intracellular IAPs expression by western blot. The class given is cell-based, mouse. Particulars: 48 h.
Series [5] deals with CT26 colon tumor-bearing mice.
Description: as §2
The subject of the next series is IAPs. Particulars: cited from earlier work. The text has this:
(§1) First, the cathepsin B-cleavable SMAC-P, SMAC-P-FRRG ([…]), was conjugated to a DOX through one-step EDC/NHS reaction, resulting in SMAC-P-FRRG-DOX (Fig. 1a and Additional file 1: Figure S1).

The nature of series [6]: Size distribution and zeta potential by zeta-sizer (DLS). The class given is physicochemical. Particulars: Zetasizer, 1 mg/ml; saline or D.W (Figure S3).
Another series deals with cathepsin L. Conditions: cited from earlier work.
Source text: as §1

The subject of a further series is cathepsin D. Particulars: cited from earlier work.
Source text: as §1

The subject of another series is cathepsin E. Particulars: cited from earlier work.
Source text: as §1

Another series deals with caspase-3. Particulars: cited from earlier work.
Source text: as §1

For a further series, the system named is MMP-9. Particulars: cited from earlier work.
Source text: as §1

Series [7] in a line: Particle stability (particle size over time) in saline, mouse plasma or serum. The class given is physicochemical. As to the method:
The inset pictures indicate representative images of Aposomes in mouse serum conditions. g Release profiles of free DOX, DOXIL and Aposomes. […] As a control, SMAC-P-FRRG-DOX in MES buffer in the absence of cathepsin B was analyzed using an HPLC system.

Description for CT26 tumor tissues: as §2

Consider `COc1cccc2c1C(=O)c1c(O)c3c(c(O)c1C2=O)C[C@@](O)(C(=O)CO)C[C@@H]3O[C@H]1C[C@H](N)[C@H](O)[C@H](C)O1.Cl` [free DOX, Doxorubicin hydrochloride], for which the IC50 in series [1] is 3 to 380 nM. For the same molecule, the “percentage of CRT-positive tumor cells (CD45−CRT+) within the tumor tissues” value with CT26 tumor tissues amounted to 57.67 ± 0.91%. The “time of release from dialysis membranes” value in [2] is no more than 6 h. Further, the “free DOX fluorescence detected in the nuclei” value in the series on CT26 cells is given as “more than 90%”. In addition, the “phagocytosis of CT26 cells by BMDMs” value in series [3] amounted to 2.1 ± 0.21%. Further, the “median survival / survival of mice” value in [4] (3 mg/kg DOX dose once every three days) came to 14 days. Besides, the “tumor volume on day 14” value in [4] (i.v. 3 mg/kg DOX dose once every three days, n = 5, mean ± SD) is 556.2 ± 149.82 mm^3. Moreover, the “intracellular IAPs expression levels” value in the series on IAPs in CT26 cells is listed as “significantly upregulated”. For the same molecule, in [5] (3 mg/kg DOX dose i.v. once every three days), the “mice died within 13 days” value is 4 out of 5. For the same molecule, the “body weight loss and tissue damage in major organs” value in [5] (3 mg/kg DOX dose once every three days, H and E of major organs) is recorded as “significant body weight loss along with extensive tissue damages”.
With AVPIAQ, the “IAP antagonism compared to AVPIAQK, AVPIA and AVPI” value with IAPs is recorded as “potent activity for IAP antagonism compared to other sequences”.
On to “AVPIAQFR [peptide released from SMAC-P-FRRG-DOX by cathepsin B]”, for which the “IAPs antagonism activity of cathepsin B cleavage product” value in the series on IAPs is listed as “comparable IAPs antagonism activity to AVPIAQ”.
Take “AVPIAQFRRG [SMAC-P-FRRG-DOX, prodrug of SMAC mimetic peptide (AVPIAQ), cathepsin B-cleavable peptide (FRRG) and doxorubicin]”: the zeta potential in series [6] was 14.9 ± 0.814 mV. In addition, the “cleavage by cathepsin L” value in the series on cathepsin L is “not cleaved”. Moreover, the “cleavage by cathepsin D” value in the series on cathepsin D is recorded as “not cleaved”. In the series on cathepsin E, the “cleavage by cathepsin E” value is given as “not cleaved”. Moreover, the “cleavage by caspase-3” value in the series on caspase-3 was “not cleaved”. The “cleavage by MMP-9” value in the series with MMP-9 is recorded as “not cleaved”. In addition, in series [7] (mouse plasma, 1 mg/ml, up to 5 days, particle size), the “particle stability in mouse plasma” value is “remarkable aggregation after 2 days”. In addition, in [7] (mouse serum, as worded in Conclusions), the “particle stability in mouse serum” value was “significant aggregation from 48 h”.

The record behind these values is publication PMC10938764 (Journal of Nanobiotechnology, 2024).
